pIC50: −log10 of the molar value. Read-outs that look alike come from different tables or passages of the source.
Experiments:
Assay type in all cases: cell-based
CXCR2 receptor = CXCR2 receptor (Homo sapiens (Human), UniProt P25025); assay: β-arrestin recruitment test, PathHunter HEK293-CXCR2 cells stimulated with CXCL8; conditions: CXCL8 10 nM
Method: (§1) The in vitro affinity of the compounds of the present invention for the CXCR1 and CXCR2 receptors is determined on a functional test of β-arrestin recruitment type after activation of the receptor.
(§2) To evaluate the direct interaction of the CXCR2 or CXCR1 receptor with β-arrestin 2, a test of β-arrestin 2 recruitment for CXCR2 or CXCR1 based on complementation of the β-galactosidase enzyme (Olson K. R., Eglen R. M., Beta-galactosidase complementation: a cell-based luminescent assay platform for drug discovery. Assay Drug Dev. Technol. 2007 February; 5(1); 137-44), as established by DiscoveRx Corporation was used. Stimulation of these two cell lines with CXCL8 (10 nM) induces the recruitment of β-arrestin 2, as indicated by a significant increase in the induction factor. All the CXCR2 antagonists are tested in a dose-dependent manner and the concentration corresponding to 50% inhibition of the response is determined (IC50=concentration of half-inhibition).
(§3) β-Arrestin Recruitment Test: “PathHunter HEK293-CXCR2” or “U20S hCXCR1 β-arrestin” cells (DiscoveRx Corporation) were seeded overnight at 10 000 cells/well (384-well format) in 20 μl of Opti MEM I medium. Preincubation with the antagonist or the vehicle for 30 minutes at 37° C. and 5% CO2 was followed by 60 minutes of stimulation with CXCL8 at 37° C. and 5% CO2. The cells were then placed at room temperature for 30 minutes. The PathHunter detection reagent (DiscoveRx Corporation) was added. After incubation for 60 minutes at room temperature, the β-galactosidase induced by the luminescence during the β-arrestin-CXCR2 interaction was measured for 0.3 s in an Envision 2102 Multilabel Reader (PerkinElmer Life and Analytical Sciences). The data are analysed via a non-linear curve procedure using the XLFit4 (IDBS) exploitation software, and the IC50 values are determined.

CXCR1 receptor = CXCR1 receptor (Homo sapiens (Human), UniProt P25024); assay: β-arrestin recruitment test, U2OS hCXCR1 β-arrestin cells stimulated with CXCL8; conditions: CXCL8 10 nM
Sequence of CXCR1 receptor (P25024 whole entry): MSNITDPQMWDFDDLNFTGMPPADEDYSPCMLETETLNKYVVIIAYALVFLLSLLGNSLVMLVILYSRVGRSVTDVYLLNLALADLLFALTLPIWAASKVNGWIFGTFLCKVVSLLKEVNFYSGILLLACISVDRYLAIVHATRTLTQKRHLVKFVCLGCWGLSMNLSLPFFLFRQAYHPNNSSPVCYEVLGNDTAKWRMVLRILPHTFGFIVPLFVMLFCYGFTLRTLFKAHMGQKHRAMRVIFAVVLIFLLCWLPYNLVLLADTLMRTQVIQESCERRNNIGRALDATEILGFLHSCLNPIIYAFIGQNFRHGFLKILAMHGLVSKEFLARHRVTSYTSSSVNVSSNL
Method: as §1, §2, §3

human neutrophils = assay: Neutrophil migration (chemotaxis assay, Transwell, IL-8); conditions: 10 nM IL-8, 1 hour incubation
Method: Purification and culturing of human neutrophils Peripheral blood preparations (18-24 hours) are collected in duly registered clinics or clinical laboratories from healthy volunteers who consented to the re-use of their blood for scientific research (Supplier: Biopredic International). The neutrophils are separated from the whole blood via a positive selection (Whole Blood CD15 MicroBeads: MiltenyiBiotech, Reference: 130-091-058). The cells are resuspended at a rate of 4×10^6 cells per mL in RPMI 1640 culture medium (Invitrogen) supplemented with filtered and heat-inactivated 5% foetal calf serum (FCS) (Invitrogen).
The experiments were performed in “HTS Transwell 96 Well Permeable Supports 3-μm pore size” filter plates (Corning, Reference: 3386). The response doses of CXCRS antagonists are applied in the lower compartments of the plates in the presence of 10 nM of IL-8 (1-72 aa, R&D Systems, Cat. No. IL-208). The neutrophils are then seeded in the upper compartment (2×10^5 cells/well). After 1 hour of incubation at 37° C. and 5% CO2, the number of viable cells that have crossed the membrane and are in the lower compartment is determined via a colorimetric method (CellTiter 96® AQueous One Solution Cell Proliferation Assay—PROMEGA Cat # G3581). Each treatment condition is evaluated in duplicate. The IC50 values are calculated with the XLFit4 software.

[1] = Homo sapiens, Neutrophil, class symbols, read-out: Migration of human neutrophils IC50
[2] = Homo sapiens, Neutrophil, read-out: Migration of h neutrophils IC50

Sequence of CXCR2 receptor (P25025 whole entry): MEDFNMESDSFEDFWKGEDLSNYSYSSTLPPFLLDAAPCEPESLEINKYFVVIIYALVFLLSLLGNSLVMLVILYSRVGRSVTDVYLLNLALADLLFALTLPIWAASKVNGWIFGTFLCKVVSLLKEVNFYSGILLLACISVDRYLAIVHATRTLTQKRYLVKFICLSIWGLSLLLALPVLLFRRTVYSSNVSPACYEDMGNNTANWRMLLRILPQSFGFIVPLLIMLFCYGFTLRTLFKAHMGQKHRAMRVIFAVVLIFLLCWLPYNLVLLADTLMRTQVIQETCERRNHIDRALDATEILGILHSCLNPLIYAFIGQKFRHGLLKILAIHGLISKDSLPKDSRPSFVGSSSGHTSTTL

SMILES | pIC50 (CXCR2 receptor; class symbols) | pIC50 (CXCR1 receptor; class symbols) | pIC50 (CXCR2 receptor) | pIC50 (CXCR1 receptor) | pIC50 (human neutrophils; [1]) | pIC50 (human neutrophils; [2]) | pIC50 (human neutrophils; class symbols, read-out: Migration of human neutrophils IC50)
CC[C@@H](Nc1c(Nc2ccc(Cl)c(S(C)(=O)=NC)c2O)c(=O)c1=O)c1ccccn1 (single isomer, unassigned; (+)) [Example 13] | ≤ 7.70 | ≤ 6.70 |  |  |  |  | 
CC[C@@H](Nc1c(Nc2ccc(Cl)c(S(C)(=O)=NC)c2O)c(=O)c1=O)c1ccccn1 (single isomer, unassigned; (-)) [Example 12] | > 7.70 | > 6.70 | 7.80 | 7.55 | > 6.52 | 7.09 | 
CN=S(C)(=O)c1c(Cl)ccc(Nc2c(N[C@@H](c3ccc(C)o3)[C@H]3CCCS3)c(=O)c2=O)c1O (stereo partly drawn) [Example 5, 3-{4-Chloro-2-hydroxy-3-methane[(N-methyl)sulfoximino]phenylamino}-4-{[(S)-(5-methylfuran-2-yl)-(R)-tetrahydrothiophen-2-ylmethyl]amino}cyclobut-3-ene-1,2-dione] | ≤ 7.70 | > 6.70 |  |  | > 6.52 |  | 
CC[C@@H](Nc1c(Nc2ccc(Cl)c(S(C)(=O)=NCCOC)c2O)c(=O)c1=O)c1ccc(C)o1 (stereo partly drawn) [Example 11, 3-[4-Chloro-2-hydroxy-3-[N-(2-methoxyethyl)-S-methylsulfonimidoyl]anilino]-4-[[(1R)-1-(5-methyl-2-furyl)propyl]amino]cyclobut-3-ene-1,2-dione] | ≤ 7.70 | ≤ 6.70 |  |  |  |  | 
CCC(CC)Nc1c(Nc2ccc(Cl)c(S(C)(=O)=Nc3ccncc3)c2O)c(=O)c1=O (stereo not shown) [Example 4, 3-{4-Chloro-2-hydroxy-3-methane[(N-pyridin-4-yl)sulfoximino]phenylamino}-4-(1-ethylpropylamino)cyclobut-3-ene-1,2-dione] | ≤ 7.70 | ≤ 6.70 |  |  |  |  | 
CCC(CC)Nc1c(Nc2cccc(S(C)(=O)=NC)c2O)c(=O)c1=O (single isomer, unassigned; (-)) [Example 18] | ≤ 7.70 | ≤ 6.70 |  |  | ≤ 6.52 |  | 
CC[C@@H](Nc1c(Nc2cccc(S(C)(=O)=NC)c2O)c(=O)c1=O)c1ccccn1 (single isomer, unassigned; (-)) [Example 15] |  | ≤ 6.70 |  |  |  |  | 
CCC(CC)Nc1c(Nc2ccc(Cl)c(S(C)(=O)=NCCN(C)C)c2O)c(=O)c1=O (stereo not shown) [Example 10, 3-[4-Chloro-3-[N-(2-dimethylaminoethyl)-S-methylsulfonimidoyl]-2-hydroxyanilino]-4-(1-ethylpropylamino)cyclobut-3-ene-1,2-dione] | ≤ 7.70 | ≤ 6.70 |  |  |  |  | 
CC[C@@H](Nc1c(Nc2ccc(Cl)c(S(C)(=N)=O)c2O)c(=O)c1=O)c1ccc(C)o1 (stereo partly drawn) [Example 1, 3-(4-Chloro-2-hydroxy-3-methanesulfoximinophenylamino)-4-[(R)-1-(5-methylfuran-2-yl)propylamino]cyclobut-3-ene-1,2-dione] | > 7.70 | > 6.70 |  |  | > 6.52 |  | 
CC[C@@H](Nc1c(Nc2cccc(S(C)(=O)=NC)c2O)c(=O)c1=O)c1ccccn1 (single isomer, unassigned; (-)) [Example 14] | ≤ 7.70 | > 6.70 |  |  | ≤ 6.52 |  | 
CC[C@@H](Nc1c(Nc2ccc(Cl)c(S(C)(=O)=NC)c2O)c(=O)c1=O)c1ccc(C)o1 (single isomer, unassigned; (+)) [Example 20] | > 7.70 | > 6.70 |  |  | > 6.52 |  | 
CN=S(C)(=O)c1c(Cl)ccc(NC(=O)Nc2cccc(F)c2Cl)c1O (stereo not shown) [Example 7, 1-(2-Chloro-3-fluorophenyl)-3-{4-chloro-2-hydroxy-3-methane[(N-methyl)sulfoximino]phenyl}urea] | ≤ 7.70 | ≤ 6.70 |  |  |  |  | 
CC[C@@H](Nc1c(Nc2cccc(S(C)(=O)=NC)c2O)c(=O)c1=O)c1ccc(C)o1 (single isomer, unassigned; (+)) [Example 17] |  | ≤ 6.70 |  |  |  |  | 
CC[C@@H](Nc1c(Nc2cccc(S(C)(=O)=NC)c2O)c(=O)c1=O)c1ccc(C)o1 (single isomer, unassigned; (+)) [Example 16] | > 7.70 |  | 7.74 | 7.44 | ≤ 6.52 | 6.45 | 
CS(=N)(=O)c1c(Cl)ccc(NC(=O)Nc2cccc(F)c2Cl)c1O (stereo not shown) [Example 6, 1-(2-Chloro-3-fluorophenyl)-3-(4-chloro-2-hydroxy-3-methanesulfoximinephenyl)-urea] | ≤ 7.70 | ≤ 6.70 |  |  |  |  | 
CC[C@@H](Nc1c(Nc2ccc(Cl)c(S(C)(=O)=NC)c2O)c(=O)c1=O)c1ccc(C)o1 (stereo partly drawn) [Example 2, 3-{4-Chloro-2-hydroxy-3-methane[(N-methyl)sulfoximino]phenylamino}-4-[(R)-1-(5-methylfuran-2-yl)propylamino]cyclobut-3-ene-1,2-dione] |  |  |  |  |  |  | > 6.52
CC[C@@H](Nc1c(Nc2ccc(Cl)c(S(C)(=O)=Nc3ccncc3)c2O)c(=O)c1=O)c1ccc(C)o1 (stereo partly drawn) [Example 3, 3-{4-Chloro-2-hydroxy-3-methane[(N-pyridin-4-yl)sulfoximino]phenylamino}-4-[(R)-1-(5-methylfuran-2-yl)propylamino]cyclobut-3-ene-1,2-dione] | ≤ 7.70 | ≤ 6.70 |  |  |  |  | 
CC[C@@H](Nc1c(Nc2cccc(S(C)(=O)=NC)c2O)c(=O)c1=O)c1ccc(C)o1 (stereo partly drawn) [Example 8, 3-{2-Hydroxy-3-methane[(N-methyl)sulfoximino]phenylamino}-4-[(R)-1-(5-methylfuran-2-yl)propylamino]cyclobut-3-ene-1,2-dione] | ≤ 7.70 | > 6.70 |  |  | ≤ 6.52 |  | 
